ChEMBL document CHEMBL5506022, “Discovery of Novel Dual Inhibitors Targeting Mutant IDH1 and NAMPT for the Treatment of Glioma with IDH1Mutation” (J Med Chem, 2024)

Key:
[1] = target: Isocitrate dehydrogenase [NADP] cytoplasmic (Homo sapiens, UniProt O75874, R132C); assay: Inhibition of recombinant IDH1 R132C mutant (unknown origin) using alpha-ketoglutarate as substrate incubated for 60 mins in presence of NADPH by fluorescence microplate reader
[2] = target: Isocitrate dehydrogenase [NADP] cytoplasmic (Homo sapiens, UniProt O75874); assay: Inhibition of wildtype IDH1 (unknown origin) using DL-isocitrate as substrate incubated for 60 mins in presence of NADP by fluorescence microplate reader
[3] = target: Nicotinamide phosphoribosyltransferase (Homo sapiens, UniProt P43490)
U-87 MG [4] = assay: Antiproliferative activity against human U-87 MG cells harboring wildtype IDH1 assessed as inhibition of cell growth incubated for 24 hrs by CCK8 assay; type: functional, cell-based, U-87MG ATCC
U-87 MG [5] = assay: Antiproliferative activity against human U-87 MG cells harboring wildtype IDH1 assessed as inhibition of cell growth incubated for 48 hrs by CCK8 assay; type: functional, cell-based, U-87MG ATCC
U-87 MG [6] = assay: Antiproliferative activity against human U-87 MG cells harboring wildtype IDH1 assessed as inhibition of cell growth incubated for 72 hrs by CCK8 assay; type: functional, cell-based, U-87MG ATCC
U-87 MG [7] = type: functional, cell-based, U-87MG ATCC; conditions: Homo sapiens, 24 h
U-87 MG [8] = type: functional, cell-based, U-87MG ATCC; conditions: Homo sapiens, 48 h
U-87 MG [9] = type: functional, cell-based, U-87MG ATCC; conditions: Homo sapiens, 72 h
U-87 MG [10] = assay: Synergistic antiproliferative activity against human U-87 MG cells harboring wildtype IDH1 assessed as inhibition of cell growth incubated for 48 hrs in presence of FK866 by CCK8 assay; type: functional, cell-based, U-87MG ATCC
U-87 MG [11] = type: functional, cell-based, U-87MG ATCC; conditions: Homo sapiens, 48 h; remark: listed apart in the source
U-87 MG [12] = assay: Synergistic antiproliferative activity against human U-87 MG cells harboring wildtype IDH1 assessed as combination index incubated for 48 hrs in presence of FK866 by CCK8 assay; type: functional, U-87MG ATCC
U-87 MG [13] = type: functional, Homo sapiens, U-87MG ATCC; conditions: time 48 hrs
U-87 MG [14] = type: functional, Homo sapiens, U-87MG ATCC; conditions: time 48 hrs; remark: listed apart in the source
U-87 MG [15] = type: functional, U-87MG ATCC; conditions: Homo sapiens, time 48 hrs, read-out: Activity
U-87 MG [16] = type: functional, Homo sapiens, U-87MG ATCC; conditions: dose 1 µM; time 48 hrs
U-87 MG [17] = type: functional, Homo sapiens, U-87MG ATCC; conditions: dose 1 µM; time 48 hrs; remark: listed apart in the source
U-87 MG [18] = type: functional, Homo sapiens, U-87MG ATCC; conditions: dose 1 µM; time 48 hrs; remark: listed apart in the source
U-87 MG [19] = assay: cells; conditions: Homo sapiens, 48 h, read-out: Activity

Isocitrate dehydrogenase [NADP] cytoplasmic (Homo sapiens, UniProt O75874, R132C), sequence (O75874 2-414 R132C limits assumed): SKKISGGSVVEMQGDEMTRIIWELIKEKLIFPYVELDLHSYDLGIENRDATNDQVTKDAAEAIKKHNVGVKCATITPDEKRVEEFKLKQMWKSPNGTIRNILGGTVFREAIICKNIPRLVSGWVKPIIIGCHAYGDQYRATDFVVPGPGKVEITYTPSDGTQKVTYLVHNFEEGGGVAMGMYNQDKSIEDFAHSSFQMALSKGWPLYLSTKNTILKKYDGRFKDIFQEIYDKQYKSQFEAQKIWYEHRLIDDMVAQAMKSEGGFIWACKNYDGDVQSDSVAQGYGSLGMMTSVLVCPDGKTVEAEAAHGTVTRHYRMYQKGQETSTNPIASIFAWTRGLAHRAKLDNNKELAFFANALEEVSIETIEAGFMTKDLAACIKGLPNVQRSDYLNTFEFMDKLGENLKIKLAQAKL
Isocitrate dehydrogenase [NADP] cytoplasmic (Homo sapiens, UniProt O75874), sequence (O75874 whole entry): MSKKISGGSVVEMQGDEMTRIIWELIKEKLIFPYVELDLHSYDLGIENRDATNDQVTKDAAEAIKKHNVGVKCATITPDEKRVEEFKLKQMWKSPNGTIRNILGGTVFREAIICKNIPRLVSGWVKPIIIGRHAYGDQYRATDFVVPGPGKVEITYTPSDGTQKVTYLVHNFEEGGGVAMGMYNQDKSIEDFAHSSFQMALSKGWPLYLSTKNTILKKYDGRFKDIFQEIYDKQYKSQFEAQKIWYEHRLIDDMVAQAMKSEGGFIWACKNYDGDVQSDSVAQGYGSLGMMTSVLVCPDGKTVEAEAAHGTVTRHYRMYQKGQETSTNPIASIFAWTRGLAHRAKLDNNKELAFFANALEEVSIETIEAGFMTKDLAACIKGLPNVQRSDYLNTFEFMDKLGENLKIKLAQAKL
Nicotinamide phosphoribosyltransferase, sequence (P43490 whole entry): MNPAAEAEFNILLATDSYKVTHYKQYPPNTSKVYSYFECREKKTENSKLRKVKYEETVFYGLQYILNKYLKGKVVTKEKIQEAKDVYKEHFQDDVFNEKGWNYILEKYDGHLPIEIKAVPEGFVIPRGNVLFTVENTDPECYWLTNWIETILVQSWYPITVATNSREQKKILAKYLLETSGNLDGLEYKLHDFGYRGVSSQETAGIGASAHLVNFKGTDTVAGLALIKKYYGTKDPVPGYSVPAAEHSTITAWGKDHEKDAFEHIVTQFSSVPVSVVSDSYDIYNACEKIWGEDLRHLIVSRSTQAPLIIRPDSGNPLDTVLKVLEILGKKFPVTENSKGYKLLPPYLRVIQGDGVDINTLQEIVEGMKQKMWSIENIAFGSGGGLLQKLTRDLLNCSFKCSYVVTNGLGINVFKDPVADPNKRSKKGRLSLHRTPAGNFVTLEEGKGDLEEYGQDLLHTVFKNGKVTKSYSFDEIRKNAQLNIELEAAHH

SMILES | IC50 [1] | IC50 [2] | IC50 [3] | further results
C[C@H](Nc1nccc(N2C(=O)OC[C@@H]2[C@H](C)F)n1)c1ccc(-c2ccc(NC(=O)c3ccc4nccn4c3)cc2)cc1 | 231 nM | 7330 nM | 39.8 nM | 
C[C@H](Nc1nccc(N2C(=O)OC[C@@H]2c2ccccc2)n1)c1ccc(-c2ccc(NC(=O)/C=C/c3cccnc3)cc2)cc1 | 147 nM | 36500 nM | 221 nM | 
C[C@H](Nc1nccc(N2C(=O)OC[C@@H]2[C@H](C)F)n1)c1ccc(-c2ccc(NC(=O)/C=C/c3cccnc3)cc2)cn1 | 342 nM | 14000 nM | 53.2 nM | 
C[C@H](Nc1nccc(N2C(=O)OC[C@@H]2Cc2ccccc2)n1)c1ccc(-c2ccc(NC(=O)/C=C/c3cccnc3)cc2)cc1 | 130 nM | 32800 nM | 38 nM | 
N#Cc1ccnc(N2C(=O)CC[C@H]2C(=O)N(c2cncc(F)c2)[C@H](C(=O)NC2CC(F)(F)C2)c2ccccc2Cl)c1 [IVOSIDENIB] |  |  |  | IC50 (U-87 MG [4]): 100000 nM; IC50 (U-87 MG [5]): 89300 nM; IC50 (U-87 MG [6]): 67200 nM; IC50 (U-87 MG [7]): 3060 nM; IC50 (U-87 MG [8]): 1020 nM; IC50 (U-87 MG [9]): 980 nM; IC50 (U-87 MG [10]): 2510 nM; IC50 (U-87 MG [11]): 560 nM; CI (U-87 MG [12]): 0.78; CI (U-87 MG [13]): 0.88; CI (U-87 MG [14]): 0.88; viability at 1 µM (U-87 MG [15]): 27.8%; Activity (U-87 MG [16]): 49.6%; Activity (U-87 MG [17]): 18%; Activity (U-87 MG [18]): 4.59%; viability at 1 µM (U-87 MG [19]): 37.8%
CC(C)[C@H]1COC(=O)N1c1ccnc(N[C@@H](C)c2ccc(-c3ccc(NC(=O)c4cnc5[nH]ccc5c4)cc3)cc2)n1 | 17.7 nM | 6440 nM | 162 nM | 
C[C@H](Nc1nccc(N2C(=O)OC[C@@H]2[C@@H](C)OC(C)(C)C)n1)c1ccc(-c2ccc(NC(=O)/C=C/c3cccnc3)cc2)cc1 | 78.7 nM | 14700 nM | 42.5 nM | 
C[C@H](Nc1nccc(N2C(=O)OC[C@@H]2[C@H](C)F)n1)c1ccc(-c2ccc(NC(=O)/C=C/c3cccnc3)cc2)cc1 | 59.3 nM | 6850 nM | 24.4 nM | 
CC(C)[C@H]1COC(=O)N1c1ccnc(N[C@@H](C)c2ccc(-c3ccc(NC(=O)COc4cccnc4)cc3)cc2)n1 | 114 nM | 8520 nM | 33.1 nM | IC50 (U-87 MG [4]): 1020 nM; IC50 (U-87 MG [5]): 890 nM; IC50 (U-87 MG [6]): 540 nM; IC50 (U-87 MG [7]): 1660 nM; IC50 (U-87 MG [8]): 1180 nM; IC50 (U-87 MG [9]): 570 nM
C[C@H](Nc1nccc(N2C(=O)OC[C@@H]2Cc2ccccc2)n1)c1ccc(-c2ccc(NC(=O)COc3cccnc3)cc2)cc1 | 294 nM | 35900 nM | 65.4 nM | 
C[C@H](Nc1nccc(N2C(=O)OC[C@@H]2Cc2ccccc2)n1)c1ccc(-c2ccc(NC(=O)c3ccc4nccn4c3)cc2)cc1 | 77.4 nM | 9740 nM | 58.1 nM | 
CC(C)[C@H]1COC(=O)N1c1ccnc(N[C@@H](C)c2ccc(-c3ccc(NC(=O)NCc4cccnc4)cc3)cc2)n1 | 1020 nM | 27000 nM | 374 nM | 
CC(C)[C@H]1COC(=O)N1c1ccnc(N[C@@H](C)c2ccc(NC(=O)CCNC(=O)/C=C/c3cccnc3)cc2)n1 | 284 nM | 3240 nM | 22.4 nM | 
CC(C)[C@H]1COC(=O)N1c1ccnc(N[C@@H](C)c2ccc(NC(=O)CNC(=O)/C=C/c3cccnc3)cc2)n1 | 362 nM | 4430 nM | 15.1 nM | 
C[C@H](Nc1nccc(N2C(=O)OC[C@@H]2[C@@H](C)O)n1)c1ccc(-c2ccc(NC(=O)/C=C/c3cccnc3)cc2)cc1 | 57 nM | 6460 nM | 32.6 nM | 
CC(C)[C@H]1COC(=O)N1c1ccnc(N[C@@H](C)c2ccc(-c3ccc(NC(=O)c4cnccn4)cc3)cc2)n1 | 579 nM | 19700 nM | 241 nM | 
CC(C)[C@H]1COC(=O)N1c1ccnc(N[C@@H](C)c2ccc(-c3ccc(NC(=O)c4cccnc4)cc3)cc2)n1 | 509 nM | 36700 nM | 109 nM | 
CC(C)[C@H]1COC(=O)N1c1ccnc(N[C@@H](C)c2ccc(NC(=O)C3CCN(C(=O)/C=C/c4cccnc4)C3)cc2)n1 (stereo not given in full) | 430 nM | 3710 nM | 54.1 nM | 
CC(C)[C@H]1COC(=O)N1c1ccnc(N[C@@H](C)c2ccc(NC(=O)C3CCN(C(=O)/C=C/c4cccnc4)CC3)cc2)n1 | 308 nM | 11100 nM | 81.2 nM | 
C[C@H](Nc1nccc(N2C(=O)OC[C@@H]2[C@@H](C)O)n1)c1ccc(-c2ccc(NC(=O)c3ccc4nccn4c3)cc2)cc1 | 102 nM | 15700 nM | 24.8 nM | 
C[C@H](Nc1nccc(N2C(=O)OC[C@@H]2[C@@H](C)O)n1)c1ccc(-c2ccc(NC(=O)COc3cccnc3)cc2)cc1 | 138 nM | 6940 nM | 42.2 nM | 
CC(C)[C@H]1COC(=O)N1c1ccnc(N[C@@H](C)c2ccc(-c3ccc(NC(=O)c4ccc5nccn5c4)cc3)cc2)n1 | 73.2 nM | 9160 nM | 193 nM | IC50 (U-87 MG [4]): 2660 nM; IC50 (U-87 MG [5]): 1210 nM; IC50 (U-87 MG [6]): 3260 nM; IC50 (U-87 MG [7]): 3110 nM; IC50 (U-87 MG [8]): 3260 nM; IC50 (U-87 MG [9]): 1460 nM
C[C@H](Nc1nccc(N2C(=O)OC[C@@H]2[C@@H](C)OC(C)(C)C)n1)c1ccc(-c2ccc(NC(=O)COc3cccnc3)cc2)cc1 | 252 nM | 33900 nM | 51.4 nM | 
CC(C)[C@H]1COC(=O)N1c1ccnc(N[C@@H](C)c2ccc(NC(=O)CCCNC(=O)/C=C/c3cccnc3)cc2)n1 | 355 nM | 9400 nM | 45.7 nM | 
CC(C)[C@H]1COC(=O)N1c1ccnc(N[C@@H](C)c2ccc(-c3ccc(NC(=O)c4cc5ncccc5o4)cc3)cc2)n1 | 232 nM | 5720 nM | 279 nM | 
C[C@H](Nc1nccc(N2C(=O)OC[C@@H]2[C@@H](C)OC(C)(C)C)n1)c1ccc(-c2ccc(NC(=O)c3ccc4nccn4c3)cc2)cc1 | 57 nM | 5790 nM | 12.6 nM | 
C[C@H](Nc1nccc(N2C(=O)OC[C@@H]2[C@H](C)F)n1)c1ccc(-c2ccc(NC(=O)COc3cccnc3)cc2)cn1 | 419 nM | 21100 nM | 32.2 nM | 
C[C@H](Nc1nccc(N2C(=O)OC[C@@H]2[C@H](C)F)n1)c1ccc(-c2ccc(NC(=O)c3ccc4nccn4c3)cc2)cn1 | 369 nM | 26100 nM | 24.3 nM | 
CC(C)[C@H]1COC(=O)N1c1ccnc(N[C@@H](C)c2ccc(NC(=O)CCCCNC(=O)/C=C/c3cccnc3)cc2)n1 | 405 nM | 6180 nM | 25.5 nM | 
CC(C)[C@H]1COC(=O)N1c1ccnc(N[C@@H](C)c2ccc(-c3ccc(NC(=O)c4cc5cnccc5[nH]4)cc3)cc2)n1 | 171 nM | 9160 nM | 127 nM | 
